“Also recorded” adds a separate entry of the source.
Columns and labels:
HepG2 cells [1] = experiment: Amount of accumulated lipid droplets in fatty acid-treated HepG2 cells (BODIPY, flow cytometry); assay type: cell-based, human; details: FIG. 2
Method: The HepG2 cells prepared in section 1 of “General Experimental Materials” were divided into 6 groups, including a normal control group, two comparative groups (i.e., comparative groups 1 and 2), a pathological control group, and two experimental groups (i.e., experimental groups 1 and 2). Each group of the HepG2 cells was incubated in a respective well of a 24-well culture plate containing 1 mL of DMEM medium at 1.2×10^5 cells/well, followed by cultivation in an incubator with culture conditions set at 37° C., 5% CO2. On the 24th and 48th hours after cultivation, the culture medium in each well was removed, and the cells of the respective group were added with the respective testing agent as shown in Table 2 below. […] After that, the supernatant was poured off, and the pellet was subjected to a fixation treatment with 4% paraformaldehyde (in PBS) for 15 minutes, followed by determining the fluorescence intensity using a flow cytometer (BD Biosciences, Cat. No. BD Accuri C6). The BODIPY was excited by an argon-ion laser (488 nm) to generate fluorescence. The fluorescence intensity was then measured at a wavelength of 504 nm, and 10,000 cells were analyzed each time. The data thus obtained were analyzed using BD Accuri C6 software, so as to obtain the mean fluorescence intensity (MFI) value in each group. […]

male C57BL/6JNarl mice [2] = experiment: High-fat diet induced NAFLD in mice, oral rosoxacin; assay type: in vivo; details: for lipid droplets accumulated in liver (hematoxylin-eosin histology) / aspartate transaminase (AST) content in serum / alanine transaminase (ALT) content in serum: HFD; for lipid droplets accumulated in liver (hematoxylin-eosin histology): FIG. 5; for aspartate transaminase (AST) content in serum: FIG. 6; for alanine transaminase (ALT) content in serum: FIG. 7; for liver weight: FIG. 4
Text: The male C57BL/6JNarl mice were randomly divided into a normal control group, a pathological control group, and two experimental groups (i.e., experimental groups 1 and 2) (n=5 per group). The mice in the normal control group were fed ad libitum for a total of 14 weeks with a normal chow diet (NCD) (Altromin, Cat. No. 1320). In addition, the mice in each of the pathological control group and the experimental groups 1 and 2 were fed ad libitum for a total of 14 weeks with a high-fat diet (HFD) (Research Diets, Cat. No. D12492) containing 60% fat, so as to induce NAFLD.
On the 5th week after feeding the diet to the mice in each group as described in section B of this example, the mice in each of the experimental groups 1 and 2 were also fed, via oral gavage, with the rosoxacin solution prepared in section A of this example, at a respective dose of 10 mg/kg per mouse and 50 mg/kg per mouse. In addition, the mice in each of the normal control group and the pathological control group were fed, via oral gavage, with PBS at a volume of 150 μL. Each mouse was fed once every two days until the end of the 14th week after feeding with the diets.
Prior to the feeding of the diets as described in section B of this example (i.e., at the 0th week), on the 1st day of each week after starting the feeding of the diets, and at the end of the 14th week after starting the feeding of the diets, the body weight of each mouse was measured.
After completion of the determination of body weight at the end of the 14th week, the mice in each group were sacrificed using CO2, and blood samples were collected via cardiac puncture at the same time. Each of the blood samples was then subjected to centrifugation at 4° C. under a speed of 1200 g for […], so as to obtain a serum sample. In addition, liver tissue was obtained from each mouse carcass, and then was subjected to weight measurement. The data thus obtained were analyzed according to the procedures as described in section 1 of “General Procedures”.
The liver tissue of each mouse obtained in section D of this example was subjected to a fixation treatment with a 10% paraformaldehyde solution for 24 hours. Next, the fixed liver tissue was subjected to a dehydration treatment performed in sequence using ethanol solutions having concentrations of […], respectively. After that, the dehydrated liver tissue was washed with xylene, and was then embedded with paraffin, followed by slicing, so as to obtain a tissue section having a thickness of 5 μm.
After dewaxing, the tissue section was subjected to hematoxylin-eosin staining using a staining protocol well-known to those skilled in the art, and was then observed under an optical microscope (Leica, Cat. No. DM2500) at a magnification of 20×.
The serum sample of each mouse obtained in section D of this example was subjected to determination of liver function indexes (i.e., aspartate transaminase (AST) and alanine transaminase (ALT)) which was entrusted to Bio-Cando Co., Ltd., so as to assess the degree of liver injury in the mouse. The data thus obtained were analyzed according to the procedures as described in section 1 of “General Procedures”.

α-SMA = experiment: Expression level of α-SMA in fatty acid-treated LX-2 cells (Western blotting); assay type: cell-based, human; details: fatty acid mixture + rosoxacin 50 μM (24th, 48th h), 900 μM (72nd h), p<0.0001, FIG. 8
Method: Each group of the LX-2 cells was incubated in a respective well of a 24-well culture plate containing 1 mL of DMEM medium at 1.2×10^5 cells/well, followed by cultivation in an incubator with culture conditions set at 37° C., 5% CO2. On the 24th and 48 th hours after cultivation, the culture medium in each well was removed, and the cells of the respective group were added with the respective testing agent as shown in Table 3 below. In addition, on the 72nd hour after cultivation, the cell culture of the respective group was added with the respective testing agent as shown in Table 3. On the 96th hour after cultivation, the liquid in each well was removed, and the cells were washed with PBS, followed by adding 500 μL of trypsin-EDTA to detach the cells from the bottom of the plate. Subsequently, 1 mL fresh DMEM medium was added to each well to neutralize trypsin activity, followed by centrifugation at 4° C. under a speed of 300 g for 3 minutes, so as to form a supernatant and a pellet. After that, the supernatant was poured off, and the resultant cell pellet was collected. […] The protein concentration in the total protein sample was determined using bicinchoninic acid assay kit (Thermo, Cat. No. 23227) in accordance with the manufacturer's instructions. […] Subsequently, ImageJ Imaging Software was used for semi-quantitatively calculating the corresponding protein expression level. […]

male C57BL/6JNarl mice [3] = experiment: CDAA diet induced NASH / liver fibrosis in mice, oral rosoxacin; assay type: in vivo; details: 50 mg/kg oral gavage once every two days, week 3 to 6 of CDAA diet
Text: The male C57BL/6JNarl mice were randomly divided into a normal control group, a pathological control group, and an experimental group (n=6 per group). The mice in the normal control group were fed ad libitum for a total of 6 weeks with a normal chow diet (NCD) (Altromin, Cat. No. 1320). In addition, the mice in each of the pathological control group and the experimental group were fed ad libitum for a total of 6 weeks with a choline deficient L-amino acid defined diet (CDAA) (Research Diets, Cat. No. A21060401) containing 45% fat and 0.2% cholesterol, so as to induce NASH.
On the 3rd week after feeding the diet to the mice in each group as described in the preceding paragraph, the mice in the experimental group were also fed, via oral gavage, with the rosoxacin solution prepared in section A of Example 2, at a dose of 50 mg/kg per mouse. In addition, the mice in each of the normal control group and the pathological control group were fed, via oral gavage, with PBS at a volume of 150 μL. Each mouse was fed once every two days until the end of the 6th week after feeding with the diets. […]
Next, ImageJ Imaging software was used for quantitatively calculating the percentage (%) of Sirius Red-stained area. […] The data thus obtained were analyzed according to the procedures as described in section 1 of “General Procedures”.

HepG2 cells [4] = experiment: Relative amount of accumulated lipid droplets in HepG2 cells, different quinolone antibiotics (BODIPY); assay type: cell-based, human; details: fatty acid mixture + antibiotic 50 μM (24th, 48th h), 900 μM (72nd h); FIG. 11
Method: The HepG2 cells prepared in section 1 of “General Experimental Materials” were divided into 7 groups, including a pathological control group, an experimental group, and five comparative groups (i.e., comparative groups 1 to 5). Each group of the HepG2 cells was incubated in a respective well of a 24-well culture plate containing 1 mL of DMEM medium at 1.2×10^5 cells/well, followed by cultivation in an incubator with culture conditions set at 37° C., 5% CO2.
On the 24th and 48th hours after cultivation, the culture medium in each well was removed, and the cells of the respective group were added with the respective testing agent as shown in Table 5 below. […]
The cell suspension of the respective one of the pathological control group, the experimental group, and the comparative groups 1 to 5 obtained in section B of this example was added with 50 μL of BODIPY solution (DMEM containing 13 μg/mL BODIPY 493/504 (Sigma-Aldrich, Cat No. 790389)), followed by placing on ice for 30 minutes in the dark to allow neutral lipid staining to be carried out. […] After that, the supernatant was poured off, and the pellet was subjected to a fixation treatment with 4% paraformaldehyde (in PBS) for 15 minutes, followed by determination of fluorescence intensity using a flow cytometer (BD Biosciences, Cat. No. BD Accuri C6).
The BODIPY was excited by an argon-ion laser (488 nm) to generate fluorescence. […]

[5] = experimental group 1: 10 mg/kg oral gavage once every two days
[6] = experimental group 2: 50 mg/kg oral gavage once every two days

Compound: CCn1cc(C(=O)O)c(=O)c2ccc(-c3ccncc3)cc21 [rosoxacin, 1-ethyl-4-oxo-7-(4-pyridyl)-1,4-dihydroquinoline-3-carboxylic acid]
- mean fluorescence intensity (MFI) value (accumulated lipid droplets) (HepG2 cells [1]; experimental group 1: fatty acid mixture + rosoxacin 10 μM (24th, 48th h), 180 μM (72nd h)): lower than that of the pathological control group
- mean fluorescence intensity (MFI) value (accumulated lipid droplets) (HepG2 cells [1]; experimental group 2: fatty acid mixture + rosoxacin 50 μM (24th, 48th h), 900 μM (72nd h), p<0.001): significantly lower than that determined in the pathological control group
- lipid droplets accumulated in liver (hematoxylin-eosin histology) (male C57BL/6JNarl mice [2]; [5]): significantly lower than those in the pathological control group
- aspartate transaminase (AST) content in serum (male C57BL/6JNarl mice [2]; [5]): apparently or significantly lower than those determined in the pathological control group
- alanine transaminase (ALT) content in serum (male C57BL/6JNarl mice [2]; [5]): apparently or significantly lower than those determined in the pathological control group
- liver weight (male C57BL/6JNarl mice [2]; experimental group 1: 10 mg/kg oral gavage once every two days, week 5 to 14 of HFD, 10 mg/kg): apparently or significantly lower than that determined in the pathological control group
- lipid droplets accumulated in liver (hematoxylin-eosin histology) (male C57BL/6JNarl mice [2]; [6]): significantly lower than those in the pathological control group
- aspartate transaminase (AST) content in serum (male C57BL/6JNarl mice [2]; [6]): apparently or significantly lower than those determined in the pathological control group
- alanine transaminase (ALT) content in serum (male C57BL/6JNarl mice [2]; experimental group 2: 50 mg/kg oral gavage once every two days, p<0.05): significantly lower than that determined in the pathological control group
- liver weight (male C57BL/6JNarl mice [2]; experimental group 2: 50 mg/kg oral gavage once every two days, week 5 to 14 of HFD, 50 mg/kg): apparently or significantly lower than that determined in the pathological control group; also recorded: even lower than that of the normal control group
- body weight (male C57BL/6JNarl mice [2]; experimental group 2: 50 mg/kg oral gavage once every two days, week 5 to 14 of HFD, p<0.05, FIG. 3): significantly lower than that determined in the pathological control group
- expression level of α-SMA (normalized to β-actin) (α-SMA): significantly lower than that determined in the pathological control group; also recorded: even lower than that determined in the normal control group
- lipid droplets accumulated in liver (hematoxylin-eosin histology) (male C57BL/6JNarl mice [3]; FIG. 9): significantly less than those in the pathological control group
- percentage of Sirius Red-stained area (male C57BL/6JNarl mice [3]; p<0.0001, FIG. 10): significantly lower than that determined in the pathological control group
- relative percentage of MFI value (pathological control group = 100%) (HepG2 cells [4]): significantly lower than that determined in the pathological control group
